The supplement of paper PMC10307832

Tests used:
Experiment in all cases: relative viability (nuclei count vs DMSO), 5 days (fraction); higher = more cells survive
[1] = compound: COc1cc2/c(=N/c3ccc(Br)cc3F)nc[nH]c2cc1OCC1CCN(C)CC1 [Vandetanib] + CS(=O)(=O)CCNCc1ccc(-c2ccc3ncnc(Nc4ccc(OCc5cccc(F)c5)c(Cl)c4)c3c2)o1 [Lapatinib] (partner 2 µM)
Outline: (§1)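 A single step with final 0.05% Triton X-100, 1% formaldehyde and 1 ug/ml Hoechst fixed the cells and stained nuclei 5 days after treatment. Lung cancer cell lines in 1536-well plates had been treated by pin tool the day after seeding with one drug alone or a fixed anchor-drug dose plus five library-drug doses (not always all listed) in √10 steps, and nuclei were counted on 4× images. Relative viability is the ratio of nuclei in treated wells to nuclei in vehicle wells, taken as the median of duplicate plates.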

[2] = compound: C1=CC=C2C(=C1)N=C(S2)C(C#N)C3=NC(=NC=C3)NCCC4=CN=CC=C4 + CC(C)C[C@H](NC(=O)[C@H](Cc1ccccc1)NC(=O)c1cnccn1)B(O)O [Bortezomib] (partner 0.002 µM)
Outline: as §1

[3] = compound: C#Cc1cccc(Nc2ncnc3cc(OC)c(OCCCCCCC(=O)NO)cc23)c1 [CUDC-101] + C[C@]1(O)C[C@@H](c2nc(-c3ccc4ccc(-c5ccccc5)nc4c3)c3c(N)nccn32)C1 [Linsitinib] (partner 1 µM)
Outline: as §1

[4] = compound: C1=CC=C2C(=C1)N=C(S2)C(C#N)C3=NC(=NC=C3)NCCC4=CN=CC=C4 + Cc1cc(Nc2cc(N3CCN(C)CC3)nc(Sc3ccc(NC(=O)C4CC4)cc3)n2)n[nH]1 [Tozasertib] (partner 0.1 µM)
Outline: as §1

Cell Line | relative viability ([1]; first compound 0.02 µM) | relative viability ([1]; first compound 0.06325 µM) | relative viability ([1]; first compound 0.2 µM) | relative viability ([1]; first compound 0.6325 µM) | relative viability ([1]; first compound 2 µM) | relative viability ([2]; first compound 0.005 µM) | relative viability ([2]; first compound 0.01581 µM) | relative viability ([2]; first compound 0.05 µM) | relative viability ([2]; first compound 0.1581 µM) | relative viability ([2]; first compound 0.5 µM) | relative viability ([3]; first compound 0.01 µM) | relative viability ([3]; first compound 0.03162 µM) | relative viability ([3]; first compound 0.1 µM) | relative viability ([3]; first compound 0.3162 µM) | relative viability ([3]; first compound 1 µM) | relative viability ([4]; first compound 0.005 µM) | relative viability ([4]; first compound 0.05 µM) | relative viability ([4]; first compound 0.1581 µM) | relative viability ([4]; first compound 0.5 µM) | relative viability ([4]; first compound 0.01581 µM)
HCC-44 | 0.917 | 1 | 1.06 | 0.968 | 0.996 | 0.87 | 0.878 | 0.877 | 0.961 | 0.882 | 0.549 | 0.617 | 0.678 | 0.675 | 0.555 | 0.949 | 0.883 | 0.927 | 0.548 | –
HCC-78 | 1.03 | 0.739 | 0.915 | 0.913 | 0.738 | 0.547 | 0.575 | 0.49 | 0.465 | 0.589 | 0.438 | 0.387 | 0.707 | 0.42 | 0.27 | 0.423 | 0.472 | 0.552 | 0.261 | 0.503
HCC-366 | 0.931 | 0.978 | 1.18 | 1.18 | 1.09 | 0.85 | 1.1 | 1.07 | 1.3 | 0.927 | 0.658 | 0.344 | 0.741 | 0.607 | 0.528 | 0.102 | 0.075 | 0.0798 | 0.0706 | 0.087
HCC-827 | 0.195 | 0.18 | 0.183 | 0.181 | 0.185 | 0.999 | 1.04 | 1.09 | 1.15 | 1.06 | 0.965 | 0.537 | 0.257 | 0.203 | 0.205 | 0.366 | 0.424 | 0.438 | 0.394 | 0.425
IA-LM | 0.762 | 0.737 | 0.953 | 0.798 | 0.987 | – | 0.844 | 0.697 | 0.839 | 0.855 | 0.676 | 0.665 | 0.365 | 0.544 | 0.548 | – | – | – | – | –
LCLC-103H | – | – | – | – | – | 0.96 | 0.984 | 1.07 | 1.23 | 0.91 | 1.12 | 1.11 | 1.11 | 1.11 | 1.15 | 0.49 | 0.525 | 0.558 | 0.478 | 0.492
LK-2 | 0.999 | 0.964 | 0.716 | 1.05 | 0.636 | – | – | – | – | – | 0.464 | 0.561 | 0.614 | 0.472 | 0.25 | 0.171 | 0.164 | 0.174 | 0.184 | 0.186
NCI-H358 | 0.38 | 0.397 | 0.445 | 0.419 | 0.434 | – | – | – | – | – | 0.849 | 0.71 | 0.793 | 0.646 | 0.323 | 0.084 | 0.0992 | 0.109 | 0.0865 | 0.0964
NCI-H441 | – | – | – | – | – | – | 0.414 | 0.679 | 0.912 | 0.743 | 0.748 | 0.662 | 0.579 | 0.779 | 0.358 | – | 0.633 | 0.759 | 0.531 | 0.715
NCI-H522 | – | – | – | – | – | – | – | – | – | – | – | – | – | – | – | 0.458 | 0.501 | 0.573 | 0.537 | 0.553
NCI-H1299 | 0.965 | 0.95 | 0.892 | 0.968 | 0.948 | 1.08 | 1.08 | 1.04 | 1.01 | 1.05 | 0.905 | 0.99 | 0.936 | 0.994 | 0.973 | – | – | – | – | –
NCI-H1395 | 0.963 | 0.875 | 1.03 | 0.936 | 0.864 | – | – | – | – | – | 1.13 | 1.05 | 0.963 | 1.07 | 0.888 | 0.684 | 0.755 | 0.713 | 0.756 | 0.69
NCI-H1563 | 0.957 | 0.882 | 1.39 | 0.953 | 1.03 | 0.808 | 0.769 | 0.886 | 0.873 | 0.798 | 1.22 | 1.06 | 1.4 | 1.18 | 1.11 | – | – | – | – | –
NCI-H1623 | – | – | – | – | – | – | – | – | – | – | – | – | – | – | – | 0.55 | 0.395 | 0.462 | 0.351 | 0.398
NCI-H1648 | – | – | – | – | – | – | – | – | – | – | – | – | – | – | – | 0.394 | 0.553 | 0.424 | 0.484 | 0.416
NCI-H1650 | 0.704 | 0.734 | – | 0.988 | 0.765 | 0.26 | 0.204 | 0.19 | 0.21 | 0.206 | – | – | – | – | – | 0.289 | 0.391 | 0.377 | 0.315 | 0.405
NCI-H1703 | 1.13 | – | 1.24 | 0.932 | 0.417 | 0.318 | 0.416 | 0.307 | 0.33 | 0.466 | – | 0.559 | 0.636 | 1.15 | 0.745 | – | – | – | – | –
NCI-H1792 | 0.886 | 0.824 | 0.869 | 0.874 | 0.862 | – | 1.04 | 0.941 | 1.11 | 0.534 | 0.558 | 0.407 | 0.54 | 0.547 | 0.454 | – | – | – | – | –
NCI-H1793 | 0.682 | 0.794 | 0.504 | 0.816 | 0.723 | – | – | – | – | – | 0.898 | 0.73 | 0.803 | 0.779 | 0.633 | 0.262 | 0.264 | 0.32 | 0.317 | 0.334
NCI-H1944 | 0.818 | 0.848 | 0.798 | 0.845 | 0.808 | – | – | – | – | – | 1.27 | 0.898 | 1.14 | 1.05 | 0.849 | 0.275 | 0.25 | 0.269 | 0.24 | 0.255
NCI-H2170 | 0.264 | 0.253 | 0.225 | 0.271 | 0.269 | – | – | – | – | – | – | – | – | – | – | 0.513 | 0.661 | 0.81 | 0.636 | 0.759
NCI-H2342 | – | – | – | – | – | – | – | – | – | – | – | – | – | – | – | 0.403 | 0.499 | 0.47 | 0.456 | 0.522
SK-MES-1 | 0.474 | 0.499 | 0.489 | 0.471 | 0.459 | – | – | – | – | – | 1.17 | 1.13 | 1.05 | 1.1 | 0.742 | 0.909 | 0.838 | 0.886 | 0.511 | 0.978
SW 900 | – | – | – | – | – | – | – | – | – | – | – | – | – | – | – | 0.452 | 0.5 | 0.489 | 0.362 | 0.489
